Source: ChEMBL document CHEMBL4651402, “Screening of ~5500 FDA-approved drugs and clinical candidates for anti-SARS-CoV-2 activity” (2021)

Legend:
SARS-CoV-2 [1] = assay: microbe, parasite or virus in culture; type: functional, organism-based, Chlorocebus sabaeus, Vero C1008; settings: Severe acute respiratory syndrome coronavirus 2, Vero C1008, 48 h
in vitro = settings: chlorocebus sabaeus
SARS-CoV-2 [2] = assay: microbe, parasite or virus in culture; settings: Severe acute respiratory syndrome coronavirus 2, Vero C1008, 48 h
[3] = Vero E6 (Vero C1008) cells, CC50
[4] = Vero E6 (Vero C1008) cells, pCC50

Structure (SMILES) | IC50 (SARS-CoV-2 [1]; read-out: IC50) | IC50 (SARS-CoV-2 [1]; read-out: pIC50 (converted)) | CC50 at 48 h (in vitro; [3]) | CC50 at 48 h (in vitro; [4]) | IC50 (SARS-CoV-2 [2]) | IC50 (SARS-CoV-2 [2]; read-out: pIC50 (converted)) | CC50 at 48 h (in vitro; vero c1008, CC50) | CC50 at 48 h (in vitro; vero c1008, pCC50)
c1ccc(CN(CCN(Cc2ccccn2)Cc2ccccn2)Cc2ccccn2)nc1 | > 100 µM | > 100 µM | 1.93 µM | 1.91 µM | > 3.09 µM | > 3.09 µM | – | –
O=C(NC1CN2CCC1CC2)c1cc(Cl)cc2c1OC1CCCCC21 (centres undefined) | > 25.1 µM | > 25.1 µM | 21.6 µM | 21.4 µM | 7.94 µM | 7.94 µM | – | –
C[C@H](Oc1cc(-c2cnn(C3CCNCC3)c2)cnc1N)c1c(Cl)ccc(F)c1Cl | ~4.47 µM | ~4.47 µM | 4.42 µM | 4.37 µM | 6.76 µM | 6.76 µM | – | –
c1ccc(C(O[C@H]2CCCN(CCc3ccc4c(c3)OCO4)C2)c2ccccc2)cc1 | 87.1 µM | 87.1 µM | > 100 µM | > 100 µM | > 100 µM | > 100 µM | – | –
CN1C2CCC1CC(OC(c1ccccc1)c1ccc(Cl)cc1)C2 (centres undefined) | > 100 µM | > 100 µM | 8.13 µM | 8.13 µM | 9.77 µM | 9.77 µM | – | –
Cc1ccc(CCCO)c(NCc2ccc3nc(NCCCN4CCOCC4)n(Cc4nc(C)ccc4O)c3c2)c1 | > 20 µM | > 20 µM | 9.33 µM | 9.33 µM | > 20 µM | > 20 µM | – | –
CC(=O)[C@@]12OC(C)(c3ccccc3)O[C@@H]1CC1C3CCC4=CC(=O)CCC4(C)C3CCC12C (some centres undefined) | > 12.6 µM | > 12.6 µM | 15.5 µM | 15.5 µM | > 100 µM | > 100 µM | – | –
CN1CCC(c2cc3cc(Cl)ccc3o2)CC1 | > 100 µM | > 100 µM | 34.7 µM | 34.7 µM | 17.2 µM | 17 µM | – | –
CCN(CC)CCCNc1cc(OC)cc2cccnc12 | > 100 µM | > 100 µM | > 100 µM | > 100 µM | 24.6 µM | 24.5 µM | – | –
COC(=O)C1C2CC3c4[nH]c5cc(OC)ccc5c4CCN3CC2CC(OC(=O)/C=C/c2cc(OC)c(OC)c(OC)c2)C1OC (centres undefined) | > 100 µM | > 100 µM | 5.5 µM | 5.5 µM | > 50.1 µM | > 50.1 µM | – | –
COC(=O)C1C2CC3c4[nH]c5ccccc5c4CCN3CC2CC(OC(=O)c2cc(OC)c(OC)c(OC)c2)C1OC (centres undefined) | > 25.1 µM | > 25.1 µM | 11.5 µM | 11.5 µM | > 20 µM | > 20 µM | – | –
Cc1ccc(-c2nc3c(nc2-c2ccc(C)cc2)N(CCCCCCC(=O)O)CCC3)cc1 | ~16.6 µM | ~16.6 µM | 50.1 µM | 50.1 µM | 17.4 µM | 17.4 µM | – | –
C#CC1(OC(C)=O)CCC2C3CCC4=C/C(=N/O)CCC4C3CCC21CC (centres undefined) | > 100 µM | > 100 µM | 20.9 µM | 20.9 µM | > 100 µM | > 100 µM | – | –
C#C[C@]1(O)CCC2C3CCc4cc(OC5CCCC5)ccc4C3CCC21C (some centres undefined) | > 100 µM | > 100 µM | 7.59 µM | 7.59 µM | 8.71 µM | 8.71 µM | – | –
C[C@H]1c2ccccc2[C@@H](CCCN(C)C)c2cc(C(F)(F)F)ccc21 | 10.5 µM | 10.5 µM | 12 µM | 12 µM | > 100 µM | > 100 µM | – | –
CCN(CCO)CCC[C@@H](C)Nc1ccnc2cc(Cl)ccc12 | > 50.1 µM | > 50.1 µM | > 50.1 µM | > 50.1 µM | 12.7 µM | 12.6 µM | – | –
CC[C@H](C(=O)[C@H](C)[C@@H](O)[C@H](C)CCc1ccc(C)c(O)c1C(=O)O)[C@@H]1O[C@@](CC)([C@H]2CC[C@](O)(CC)[C@@H](C)O2)C[C@@H]1C | 1.07 µM | 1.07 µM | ~5.37 µM | ~5.37 µM | > 0.631 µM | > 0.631 µM | – | –
Cc1c(O)cccc1C(=O)N[C@@H](CSc1ccccc1)[C@H](O)CN1C[C@H]2CCCC[C@H]2C[C@H]1C(=O)NC(C)(C)C | ~3.97 µM | ~3.98 µM | 11.2 µM | 11.2 µM | 5.22 µM | 5.25 µM | – | –
CO[C@H]1CC[C@H](n2c([C@H]3CCCC(=O)N3c3ccc(F)c(F)c3)nc3cc(-c4c(C)noc4C)ccc32)CC1 (relative stereo) | > 100 µM | > 100 µM | 9.12 µM | 9.12 µM | > 100 µM | > 100 µM | – | –
Nc1nc2nn[nH]c2c(=O)[nH]1 [8-AZAGUANINE] | > 50.1 µM | > 50.1 µM | 23.7 µM | 23.4 µM | > 50.1 µM | > 50.1 µM | – | –
CNCC[C@@H](Oc1cccc2ccccc12)c1cccs1 [(R)-DULOXETINE] | > 100 µM | > 100 µM | – | – | 7.24 µM | 7.24 µM | 16.2 µM | 16.2 µM
CN[C@@H]1C[C@@H](c2ccc(Cl)c(Cl)c2)c2ccccc21 [(R,S)-INDATRALINE] | > 100 µM | > 100 µM | 8.51 µM | 8.51 µM | 8.32 µM | 8.32 µM | – | –
CC(=O)O[C@H]1CC[C@@]2(C)C(=CC[C@@H]3[C@@H]2CC[C@]2(C)C(c4cccnc4)=CC[C@@H]32)C1 [ABIRATERONE ACETATE] | > 25.1 µM | > 25.1 µM | 9.89 µM | 9.77 µM | > 100 µM | > 100 µM | – | –
CC(=O)c1ccc2c(c1)N(CCCN(C)C)c1ccccc1S2 [ACEPROMAZINE] | > 100 µM | > 100 µM | 22.4 µM | 22.4 µM | > 100 µM | > 100 µM | – | –
CC(=O)c1ccc2c(c1)N(CCCN1CCN(CCO)CC1)c1ccccc1S2 [ACETOPHENAZINE] | > 100 µM | > 100 µM | ~14.6 µM | ~14.5 µM | > 100 µM | > 100 µM | – | –
Cc1cc(O[C@@H](CCC(F)(F)F)c2ccc(C(=O)NCCC(=O)O)cc2)cc(C)c1-c1ccc(C(C)(C)C)cc1 [ADOMEGLIVANT] | > 6.31 µM | > 6.31 µM | ~10.4 µM | ~10.2 µM | > 10 µM | > 10 µM | – | –
CNC(=O)[C@@H](c1ccccc1)N1CCc2cc(OC)c(OC)cc2[C@@H]1CCc1ccc(C(F)(F)F)cc1 [ALMOREXANT] | > 25.1 µM | > 25.1 µM | 21.4 µM | 21.4 µM | 18.6 µM | 18.6 µM | – | –
CCOC(=O)[C@H]1O[C@@H]1C(=O)N[C@@H](CC(C)C)C(=O)NCCC(C)C [ALOXISTATIN] | 85.1 µM | 85.1 µM | > 100 µM | > 100 µM | 34.3 µM | 33.9 µM | – | –
C=C1CC[C@@H]2[C@](C)(CO)[C@H](O)CC[C@@]2(C)[C@@H]1C/C=C1/C(=O)OC[C@H]1O [ANDROGRAPHOLIDE] | > 100 µM | > 100 µM | ~21.6 µM | ~21.4 µM | > 100 µM | > 100 µM | – | –
